Reference: PMC12615863, “Improving GRPR-targeting peptides for radiotheranostics application: insights from chelator modifications and α-methyl-L tryptophan substitution” (EJNMMI Radiopharmacy and Chemistry, 2025)
Like-named read-outs stand apart in the source and are kept apart here.

Experiments:
[1] = Biodistribution in mice bearing PC-3 xenografts; type: in vivo, Balb/c nu/nu mice; conditions: mouse, total radioactivity, PC-3 xenografted Balb/c nu/nu mice, iv 100 pmol, mean ± SD; for tissue uptake at 2 h / tissue uptake at 4 h / tissue uptake at 24 h: Balb/c nu/nu, iv; for tissue uptake at 4 h / tissue uptake dose at 4 h: 4 h pi; for tissue uptake at 24 h / tissue uptake dose at 24 h: 24 h pi
Method: (§1) Each mouse was xenografted with a subcutaneous injection of 8 × 10⁶ PC-3 cells in the right hind leg. After approximately 4 weeks, the animals were injected into the tail vein with 100 µL of radiopeptide (100 pmol—110–130 kBq, diluted in PBS/BSA). Four animals were used for each time point per peptide. […] At the determined time points, the mice were euthanized, organs were collected and weighed, and their activity content was measured in the gamma counter. Results were presented as the percentage of injected activity per gram (%IA/g) for the collected organs, and the percentage of injected activity (%IA) for the gastrointestinal tract (GI) and the carcass. […] Statistical analysis was performed with GraphPad Prism 10 using two way ANOVA with Tuckey’s or Šidák’a post hoc analysis.

PC-3 xenografts = assay: Biodistribution in mice bearing PC-3 xenografts; type: in vivo, Balb/c nu/nu mice; conditions: PC-3 xenografted mice, between 4 and 24 h pi
Method: as §1

PC-3 cells = assay: In vitro GRPR specificity assay (uptake with or without NOTA-PEG2-RM26 block); type: cell-based, human
Method: After discarding the medium, the cells were washed with cold (4 °C) phosphate-buffered saline containing 1% w/v bovine serum albumin (PBS/BSA). The radiopeptides (Cf = 1 nM in 1 mL PBS/BSA) were added to all wells. A subset of wells was also treated with an excess of unlabeled GRPR-binding peptide NOTA-PEG2-RM26 (Bjäreback et al. [2025]) (Cf = 1 µM in 1 mL PBS/BSA) to block GRPR. After incubation for 1 h at 37 °C, the supernatant was removed, and the cells were washed and then collected by treating them with 1 M NaOH. The activity of the collected samples was measured with the gamma counter. This assay was performed in triplicate for each radiopeptide.

[2] = In vivo stability: intact radiopeptide in peripheral mouse blood 5 min pi, radio-HPLC; conditions: for Percentage of intact peptide, Entresto: blood 5 min pi
Method: Two animals per peptide were injected intravenously with a bolus of test radioligand (50 MBq, 2 nmol of peptide in 100 μL PBS/EtOH v/v 9:1) – Control group. To inhibit NEP, additional groups of two mice per compound were orally treated with 12 mg Entresto® (Novartis, Basel, Switzerland) 30 min before receiving the intravenous injection—Entresto group. Five minutes post-injection (pi), the animals were euthanized, and the blood was collected and immediately mixed with EDTA (0.1 mM, 40 μL) in Eppendorf tubes on ice. The mixture was spun at 2000 g for 10 min at 4 °C in an Eppendorf Centrifuge 5430 R (Eppendorf AG, Hamburg, Germany), and the plasma was collected and diluted with an equal volume of MeCN (4 °C). After a second centrifugation at 15,000 g and 4 °C for 10 min, the supernatant was collected in an Eppendorf tube and concentrated to 50–100 μL at 50 °C using a mild stream of N2. PBS was added to the samples to reach a final volume of 200 μL, and the solutions were filtered through a syringe filter (0.22 μm, 13 mm, VWR International, Radnor, USA). The filtered solution was analyzed by reversed-phase radio-HPLC to determine the percentage of intact peptides. The peak corresponding to the intact peptide was identified by injection of an aliquot of the labeling solution.

[3] = blood, 100 pmol, n = 4, read-out: Blood activity uptake
[4] = bone, 100 pmol, n = 4, read-out: Bone activity uptake
[5] = kidneys, 100 pmol, n = 4, read-out: Kidneys activity uptake
[6] = liver, 100 pmol, n = 4, read-out: Liver activity uptake
[7] = lungs, 100 pmol, n = 4, read-out: Lungs activity uptake
[8] = muscle, 100 pmol, n = 4, read-out: Muscle activity uptake
[9] = pancreas, 100 pmol, n = 4, read-out: Pancreas activity uptake
[10] = small intestine, 100 pmol, n = 4, read-out: Small Int. activity uptake
[11] = spleen, 100 pmol, n = 4, read-out: Spleen activity uptake
[12] = stomach, 100 pmol, n = 4, read-out: Stomach activity uptake
[13] = tumor, 100 pmol, n = 4, read-out: Tumor activity uptake
[14] = carcass, n = 4, read-out: Body activity uptake
[15] = gastrointestinal tract with content, n = 4, read-out: GI activity uptake

Structure (SMILES): CC(C)C[C@H](NC(=O)C[C@H](O)[C@H](CC(C)C)NC(=O)[C@H](Cc1c[nH]cn1)NC(=O)CN(C)C(=O)[C@@H](NC(=O)[C@H](C)NC(=O)[C@](C)(Cc1c[nH]c2ccccc12)NC(=O)[C@H](CCC(N)=O)NC(=O)[C@@H](Cc1ccccc1)NC(=O)CN1CCC(NC(=O)COCCOCCNC(=O)CN2CCN(CC(=O)O)CCN(CC(=O)O)CCN(CC(=O)O)CC2)CC1)C(C)C)C(N)=O [[^177Lu]Lu-PKB3, metal not drawn]
- tissue uptake at 2 h ([1]; blood, 100 pmol, 2 h pi, n = 4, read-out: Blood activity uptake): 0.22 ± 0.04 %ID/g
- tissue uptake at 4 h [1, 3]: 0.09 ± 0.02 %ID/g
- tissue uptake at 24 h [1, 3]: 0.02 ± 0.01 %ID/g
- tissue uptake at 2 h ([1]; blood, 2 h pi blocked (co-injected 100-fold molar excess NOTA-PEG2-RM26), n = 3, read-out: Blood activity uptake): 0.13 ± 0.06 %ID/g
- tissue uptake at 2 h ([1]; bone, 100 pmol, 2 h pi, n = 4, read-out: Bone activity uptake): 0.16 ± 0.03 %ID/g
- tissue uptake at 4 h [1, 4]: 0.13 ± 0.04 %ID/g
- tissue uptake at 24 h [1, 4]: 0.08 ± 0.03 %ID/g
- tissue uptake at 2 h ([1]; bone, 2 h pi blocked (co-injected 100-fold molar excess NOTA-PEG2-RM26), n = 3, read-out: Bone activity uptake): 0.11 ± 0.03 %ID/g
- tissue uptake at 2 h ([1]; kidneys, 100 pmol, 2 h pi, n = 4, read-out: Kidneys activity uptake): 7.4 ± 1 %ID/g
- tissue uptake at 4 h [1, 5]: 5.9 ± 0.8 %ID/g
- tissue uptake at 24 h [1, 5]: 4.3 ± 0.8 %ID/g
- tissue uptake at 2 h ([1]; kidneys, 2 h pi blocked (co-injected 100-fold molar excess NOTA-PEG2-RM26), n = 3, read-out: Kidneys activity uptake): 5.4 ± 0.7 %ID/g
- tissue uptake at 2 h ([1]; liver, 100 pmol, 2 h pi, n = 4, read-out: Liver activity uptake): < 0.5 %ID/g
- tissue uptake at 4 h [1, 6]: 0.42 ± 0.03 %ID/g
- tissue uptake at 24 h [1, 6]: 0.24 ± 0.02 %ID/g
- tissue uptake at 2 h ([1]; liver, 2 h pi blocked (co-injected 100-fold molar excess NOTA-PEG2-RM26), n = 3, read-out: Liver activity uptake): 0.38 ± 0.05 %ID/g
- tissue uptake at 2 h ([1]; lungs, 100 pmol, 2 h pi, n = 4, read-out: Lungs activity uptake): 0.6 ± 0.3 %ID/g
- tissue uptake at 4 h [1, 7]: 0.24 ± 0.08 %ID/g
- tissue uptake at 24 h [1, 7]: 0.09 ± 0.01 %ID/g
- tissue uptake at 2 h ([1]; lungs, 2 h pi blocked (co-injected 100-fold molar excess NOTA-PEG2-RM26), n = 3, read-out: Lungs activity uptake): 0.27 ± 0.03 %ID/g
- tissue uptake at 2 h ([1]; muscle, 100 pmol, 2 h pi, n = 4, read-out: Muscle activity uptake): 0.09 ± 0.02 %ID/g
- tissue uptake at 4 h [1, 8]: 0.1 ± 0.1 %ID/g
- tissue uptake at 24 h [1, 8]: 0.02 ± 0.01 %ID/g
- tissue uptake at 2 h ([1]; muscle, 2 h pi blocked (co-injected 100-fold molar excess NOTA-PEG2-RM26), n = 3, read-out: Muscle activity uptake): 0.07 ± 0.05 %ID/g
- tissue uptake at 2 h ([1]; pancreas, 100 pmol, 2 h pi, n = 4, read-out: Pancreas activity uptake): 11.9 ± 2.1 %ID/g
- tissue uptake at 4 h [1, 9]: 4.7 ± 0.4 %ID/g
- tissue uptake at 24 h [1, 9]: 0.5 ± 0.2 %ID/g
- tissue uptake at 2 h ([1]; small intestine, 100 pmol, 2 h pi, n = 4, read-out: Small Int. activity uptake): 2.2 ± 0.6 %ID/g
- tissue uptake at 4 h [1, 10]: 1 ± 0.3 %ID/g
- tissue uptake at 24 h [1, 10]: 0.11 ± 0.03 %ID/g
- tissue uptake at 2 h ([1]; small intestine, 2 h pi blocked (co-injected 100-fold molar excess NOTA-PEG2-RM26), n = 3, read-out: Small Int. activity uptake): 0.7 ± 0.3 %ID/g
- tissue uptake at 2 h ([1]; spleen, 100 pmol, 2 h pi, n = 4, read-out: Spleen activity uptake): 0.4 ± 0.2 %ID/g
- tissue uptake at 4 h [1, 11]: 0.25 ± 0.07 %ID/g
- tissue uptake at 24 h [1, 11]: 0.16 ± 0.06 %ID/g
- tissue uptake at 2 h ([1]; spleen, 2 h pi blocked (co-injected 100-fold molar excess NOTA-PEG2-RM26), n = 3, read-out: Spleen activity uptake): 0.13 ± 0.02 %ID/g
- tissue uptake at 2 h ([1]; stomach, 100 pmol, 2 h pi, n = 4, read-out: Stomach activity uptake): 2.5 ± 0.2 %ID/g
- tissue uptake at 4 h [1, 12]: 1.9 ± 0.3 %ID/g
- tissue uptake at 24 h [1, 12]: 0.16 ± 0.05 %ID/g
- tissue uptake at 2 h ([1]; stomach, 2 h pi blocked (co-injected 100-fold molar excess NOTA-PEG2-RM26), n = 3, read-out: Stomach activity uptake): 0.6 ± 0.1 %ID/g
- tissue uptake at 2 h ([1]; tumor, 100 pmol, 2 h pi, n = 4, read-out: Tumor activity uptake): 23.8 ± 2.5 %ID/g
- tissue uptake at 4 h [1, 13]: 18.8 ± 0.7 %ID/g
- tissue uptake at 24 h [1, 13]: 15.3 ± 2.7 %ID/g
- tissue uptake at 2 h ([1]; tumor, 2 h pi blocked (co-injected 100-fold molar excess NOTA-PEG2-RM26), n = 3, read-out: Tumor activity uptake): 3.4 ± 0.3 %ID/g
- tissue uptake dose at 2 h ([1]; carcass, 2 h pi, n = 4, read-out: Body activity uptake): 2.7 ± 0.8 %ID
- tissue uptake dose at 4 h [1, 14]: 2.2 ± 0.4 %ID
- tissue uptake dose at 24 h [1, 14]: 1.1 ± 0.7 %ID
- tissue uptake dose at 2 h ([1]; gastrointestinal tract with content, 2 h pi, n = 4, read-out: GI activity uptake): 2 ± 0.2 %ID
- tissue uptake dose at 4 h [1, 15]: 0.4 ± 0.3 %ID
- tissue uptake dose at 24 h [1, 15]: 0.16 ± 0.03 %ID
- tumor retention of activity (PC-3 xenografts): around 80%
- in vitro binding specificity (PC-3 cells; 1 nM radiopeptide, 1 h at 37 °C, block with 1 µM NOTA-PEG2-RM26, n = 3): GRPR-mediated activity uptake
- total cellular activity uptake (rank among the three radiopeptides) (PC-3 cells; 1 nM, 37 °C, n = 3): highest
- Percentage of intact peptide, Entresto ([2]; NMRI mice, 12 mg Entresto orally 30 min before injection, recorded value n1): 90% [90% - 90%]
- Percentage of intact peptide, Entresto ([2]; NMRI mice, 12 mg Entresto orally 30 min before injection, recorded value n2): 90% [90% - 90%]
- Percentage of intact peptide, Entresto ([2]; healthy NMRI mice, 12 mg Entresto orally 30 min before iv injection (NEP inhibition), radio-HPLC, mean of n = 2): 90% [90% - 90%]
- Percentage of intact peptide, Control ([2]; healthy NMRI mice, iv 50 MBq, 2 nmol, peripheral blood 5 min pi, radio-HPLC, mean of n = 2): 91% [88% - 94%]
